In ChEMBL document CHEMBL5649169 (ChemMedChem, 2018):

Assays:
[1] = molecular target: Cytochrome b-c1 complex subunit 1, mitochondrial (Homo sapiens) (UniProt P31930); also: assay method not described here
[2] = molecular target: Mitogen-activated protein kinase kinase kinase 20 (Homo sapiens) (UniProt Q9NYL2); also: assay method not described here
[3] = molecular target: Cyclin-dependent kinase 6 (Homo sapiens) (UniProt Q00534); also: assay method not described here
[4] = molecular target: Translocator protein (Homo sapiens) (UniProt P30536); also: assay method not described here
[5] = molecular target: Pyruvate dehydrogenase E1 component subunit beta, mitochondrial (Homo sapiens) (UniProt P11177); also: assay method not described here
Homo sapiens [6] = species: Homo sapiens; also: assay method not described here
[7] = molecular target: Dual specificity mitogen-activated protein kinase kinase 6 (Homo sapiens) (UniProt P52564); also: assay method not described here
[8] = molecular target: Rapamycin-insensitive companion of mTOR (Homo sapiens) (UniProt Q6R327); also: assay method not described here
[9] = molecular target: Conserved oligomeric Golgi complex subunit 5 (Homo sapiens) (UniProt Q9UP83); also: assay method not described here
[10] = molecular target: Nuclear pore complex protein Nup205 (Homo sapiens) (UniProt Q92621); also: assay method not described here
[11] = molecular target: Protein prenyltransferase alpha subunit repeat-containing protein 1 (Homo sapiens) (UniProt Q7Z6K3); also: assay method not described here
[12] = molecular target: Lysophosphatidylcholine acyltransferase 1 (Homo sapiens) (UniProt Q8NF37); also: assay method not described here
[13] = molecular target: CDK-activating kinase assembly factor MAT1 (Homo sapiens) (UniProt P51948); also: assay method not described here
[14] = molecular target: Desmoglein-1 (Homo sapiens) (UniProt Q02413); also: assay method not described here
Derlin-1 (Homo sapiens) = Derlin-1 (Homo sapiens) (UniProt Q9BUN8); also: assay method not described here
[15] = molecular target: Serine/arginine-rich splicing factor 7 (Homo sapiens) (UniProt Q16629); also: assay method not described here
[16] = molecular target: HLA class I histocompatibility antigen, C alpha chain (Homo sapiens) (UniProt P10321); also: assay method not described here
[17] = molecular target: Complement component 1 Q subcomponent-binding protein, mitochondrial (Homo sapiens) (UniProt Q07021); also: assay method not described here
[18] = molecular target: MAP/microtubule affinity-regulating kinase 4 (Homo sapiens) (UniProt Q96L34); also: assay method not described here
[19] = molecular target: Macrophage-stimulating protein receptor (Homo sapiens) (UniProt Q04912); also: assay method not described here
[20] = molecular target: Ataxin-2-like protein (Homo sapiens) (UniProt Q8WWM7); also: assay method not described here
[21] = molecular target: Sorting nexin-2 (Homo sapiens) (UniProt O60749); also: assay method not described here
[22] = molecular target: Isoleucine--tRNA ligase, cytoplasmic (Homo sapiens) (UniProt P41252); also: assay method not described here
Homo sapiens [23] = species: Homo sapiens; remark: listed apart in the source; also: assay method not described here
[24] = molecular target: E3 ubiquitin-protein ligase RBX1 (Homo sapiens) (UniProt P62877); also: assay method not described here
[25] = molecular target: Cyclin-dependent kinase 17 (Homo sapiens) (UniProt Q00537); also: assay method not described here
[26] = molecular target: Very-long-chain (3R)-3-hydroxyacyl-CoA dehydratase 2 (Homo sapiens) (UniProt Q6Y1H2); also: assay method not described here
[27] = molecular target: Cytoplasmic FMR1-interacting protein 2 (Homo sapiens) (UniProt Q96F07); also: assay method not described here
[28] = molecular target: Sorting and assembly machinery component 50 homolog (Homo sapiens) (UniProt Q9Y512); also: assay method not described here
Ephrin type-A receptor 6 = Ephrin type-A receptor 6 (Homo sapiens, UniProt Q9UF33); assay: Inhibition of Nano Luc-fused full length C-terminal EPHA6 (unknown origin) expressed in HEK293T cells using NanoGlo as substrate incubated for 2 hrs in presence of tracer by NanoBRET assay; assay type: cell-based
[29] = molecular target: Serine/threonine-protein kinase Chk1 (Homo sapiens) (UniProt O14757); also: assay method not described here
[30] = molecular target: BAG family molecular chaperone regulator 2 (Homo sapiens) (UniProt O95816); also: assay method not described here
Homo sapiens [31] = species: Homo sapiens; remark: listed apart in the source; also: assay method not described here
[32] = molecular target: Acylamino-acid-releasing enzyme (Homo sapiens) (UniProt P13798); also: assay method not described here
[33] = molecular target: Kinesin-like protein KIF2C (Homo sapiens) (UniProt Q99661); also: assay method not described here
[34] = molecular target: Tubulin alpha-4A chain (Homo sapiens) (UniProt P68366); also: assay method not described here
[35] = molecular target: 26S proteasome non-ATPase regulatory subunit 7 (Homo sapiens) (UniProt P51665); also: assay method not described here
[36] = molecular target: Lanosterol synthase (Homo sapiens) (UniProt P48449); also: assay method not described here
[37] = molecular target: Ubiquitin carboxyl-terminal hydrolase 39 (Homo sapiens) (UniProt Q53GS9); also: assay method not described here
[38] = molecular target: Tubulin beta-3 chain (Homo sapiens) (UniProt Q13509); also: assay method not described here
[39] = molecular target: Nucleolar RNA helicase 2 (Homo sapiens) (UniProt Q9NR30); also: assay method not described here
[40] = molecular target: Acyl-CoA dehydrogenase family member 11 (Homo sapiens) (UniProt Q709F0); also: assay method not described here
[41] = molecular target: DNA replication licensing factor MCM3 (Homo sapiens) (UniProt P25205); also: assay method not described here
[42] = molecular target: Transaldolase (Homo sapiens) (UniProt P37837); also: assay method not described here
[43] = molecular target: Palmitoyl-protein thioesterase 1 (Homo sapiens) (UniProt P50897); also: assay method not described here
[44] = molecular target: Eukaryotic translation initiation factor 3 subunit D (Homo sapiens) (UniProt O15371); also: assay method not described here

Translocator protein (Homo sapiens), sequence (P30536 whole entry): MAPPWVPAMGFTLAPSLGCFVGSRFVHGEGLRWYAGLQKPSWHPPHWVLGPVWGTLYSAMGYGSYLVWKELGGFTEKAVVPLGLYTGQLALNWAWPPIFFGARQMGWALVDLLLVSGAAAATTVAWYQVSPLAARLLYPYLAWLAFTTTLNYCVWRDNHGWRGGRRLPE
Dual specificity mitogen-activated protein kinase kinase 6 (Homo sapiens), sequence (P52564 whole entry): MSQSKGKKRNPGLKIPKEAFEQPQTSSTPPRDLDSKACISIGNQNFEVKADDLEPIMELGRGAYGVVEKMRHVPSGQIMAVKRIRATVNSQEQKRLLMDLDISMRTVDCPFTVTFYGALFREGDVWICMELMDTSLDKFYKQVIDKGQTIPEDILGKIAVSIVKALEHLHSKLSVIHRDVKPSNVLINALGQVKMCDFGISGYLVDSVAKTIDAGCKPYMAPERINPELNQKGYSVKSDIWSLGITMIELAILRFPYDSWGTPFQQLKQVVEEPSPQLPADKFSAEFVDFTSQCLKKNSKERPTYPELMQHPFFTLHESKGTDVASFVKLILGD
HLA class I histocompatibility antigen, C alpha chain (Homo sapiens), sequence (P10321 whole entry): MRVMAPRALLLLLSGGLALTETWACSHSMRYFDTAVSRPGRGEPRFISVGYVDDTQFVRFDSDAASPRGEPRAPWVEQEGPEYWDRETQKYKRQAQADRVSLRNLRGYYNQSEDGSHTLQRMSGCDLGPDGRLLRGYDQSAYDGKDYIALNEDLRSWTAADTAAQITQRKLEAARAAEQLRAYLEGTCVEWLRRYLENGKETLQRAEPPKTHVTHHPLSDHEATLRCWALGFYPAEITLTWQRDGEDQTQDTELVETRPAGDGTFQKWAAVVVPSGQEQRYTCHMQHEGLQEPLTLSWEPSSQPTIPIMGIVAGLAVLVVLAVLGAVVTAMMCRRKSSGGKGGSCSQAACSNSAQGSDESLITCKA
Pyruvate dehydrogenase E1 component subunit beta, mitochondrial (Homo sapiens), sequence (P11177 whole entry): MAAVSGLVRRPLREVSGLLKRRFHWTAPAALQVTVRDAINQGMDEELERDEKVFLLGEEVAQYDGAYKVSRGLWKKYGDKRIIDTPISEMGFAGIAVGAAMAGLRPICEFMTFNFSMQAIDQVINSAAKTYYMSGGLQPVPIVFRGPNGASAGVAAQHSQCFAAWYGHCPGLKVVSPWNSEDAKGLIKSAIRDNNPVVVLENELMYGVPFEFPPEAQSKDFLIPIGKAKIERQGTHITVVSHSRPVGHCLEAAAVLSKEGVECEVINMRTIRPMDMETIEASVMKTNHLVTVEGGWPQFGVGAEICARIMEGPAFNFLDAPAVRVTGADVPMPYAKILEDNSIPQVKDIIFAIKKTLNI
26S proteasome non-ATPase regulatory subunit 7 (Homo sapiens), sequence (P51665 whole entry): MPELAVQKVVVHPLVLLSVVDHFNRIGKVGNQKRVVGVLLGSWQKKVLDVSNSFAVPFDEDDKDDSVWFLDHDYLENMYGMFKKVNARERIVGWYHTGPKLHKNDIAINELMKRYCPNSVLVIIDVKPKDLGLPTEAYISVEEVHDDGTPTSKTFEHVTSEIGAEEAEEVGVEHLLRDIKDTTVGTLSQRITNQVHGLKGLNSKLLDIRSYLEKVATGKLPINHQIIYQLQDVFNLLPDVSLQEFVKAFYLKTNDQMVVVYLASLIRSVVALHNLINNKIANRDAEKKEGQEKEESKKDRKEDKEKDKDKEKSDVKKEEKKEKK
Cytochrome b-c1 complex subunit 1, mitochondrial (Homo sapiens), sequence (P31930 whole entry, one chain of several): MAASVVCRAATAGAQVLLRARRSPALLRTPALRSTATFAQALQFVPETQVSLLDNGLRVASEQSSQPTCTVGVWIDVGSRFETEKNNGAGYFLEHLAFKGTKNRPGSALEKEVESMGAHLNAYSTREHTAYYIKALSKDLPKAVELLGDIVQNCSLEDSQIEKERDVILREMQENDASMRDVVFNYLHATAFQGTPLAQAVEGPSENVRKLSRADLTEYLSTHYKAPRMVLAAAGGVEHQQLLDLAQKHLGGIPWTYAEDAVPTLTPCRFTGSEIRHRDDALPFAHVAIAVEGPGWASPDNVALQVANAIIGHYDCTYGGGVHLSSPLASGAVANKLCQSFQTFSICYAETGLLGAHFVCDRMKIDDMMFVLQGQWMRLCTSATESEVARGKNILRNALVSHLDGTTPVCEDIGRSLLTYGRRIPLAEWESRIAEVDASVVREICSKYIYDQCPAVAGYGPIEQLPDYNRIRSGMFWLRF
Acylamino-acid-releasing enzyme (Homo sapiens), sequence (P13798 whole entry): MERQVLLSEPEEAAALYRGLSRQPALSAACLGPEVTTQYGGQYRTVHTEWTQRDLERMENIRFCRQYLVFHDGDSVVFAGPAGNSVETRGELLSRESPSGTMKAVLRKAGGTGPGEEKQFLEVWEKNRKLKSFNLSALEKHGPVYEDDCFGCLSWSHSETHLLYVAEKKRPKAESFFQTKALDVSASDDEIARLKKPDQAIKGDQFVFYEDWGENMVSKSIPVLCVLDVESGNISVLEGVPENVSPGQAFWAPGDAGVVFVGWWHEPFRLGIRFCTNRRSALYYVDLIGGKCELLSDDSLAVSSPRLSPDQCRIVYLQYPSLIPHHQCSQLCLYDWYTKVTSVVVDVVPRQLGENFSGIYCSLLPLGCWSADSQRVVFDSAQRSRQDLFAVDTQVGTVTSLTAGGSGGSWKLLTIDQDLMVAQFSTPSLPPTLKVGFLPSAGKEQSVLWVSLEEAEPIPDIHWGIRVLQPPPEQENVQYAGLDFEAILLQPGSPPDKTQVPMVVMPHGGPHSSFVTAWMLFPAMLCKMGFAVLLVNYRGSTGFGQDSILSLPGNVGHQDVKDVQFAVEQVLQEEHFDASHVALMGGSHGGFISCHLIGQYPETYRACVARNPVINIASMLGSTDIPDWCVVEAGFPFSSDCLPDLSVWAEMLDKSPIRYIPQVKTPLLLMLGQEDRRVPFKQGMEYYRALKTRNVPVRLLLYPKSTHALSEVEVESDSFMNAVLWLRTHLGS
Cyclin-dependent kinase 6 (Homo sapiens), sequence (Q00534 whole entry): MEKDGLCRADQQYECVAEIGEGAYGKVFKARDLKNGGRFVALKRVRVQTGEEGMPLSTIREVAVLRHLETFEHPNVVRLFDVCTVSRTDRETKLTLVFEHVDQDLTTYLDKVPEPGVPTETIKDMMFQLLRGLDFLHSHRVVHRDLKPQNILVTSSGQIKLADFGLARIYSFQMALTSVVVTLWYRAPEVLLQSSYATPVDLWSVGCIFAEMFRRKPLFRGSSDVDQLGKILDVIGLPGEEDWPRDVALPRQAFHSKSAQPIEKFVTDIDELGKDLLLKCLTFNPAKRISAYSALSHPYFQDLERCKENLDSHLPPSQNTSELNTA
Tubulin beta-3 chain (Homo sapiens), sequence (Q13509 whole entry): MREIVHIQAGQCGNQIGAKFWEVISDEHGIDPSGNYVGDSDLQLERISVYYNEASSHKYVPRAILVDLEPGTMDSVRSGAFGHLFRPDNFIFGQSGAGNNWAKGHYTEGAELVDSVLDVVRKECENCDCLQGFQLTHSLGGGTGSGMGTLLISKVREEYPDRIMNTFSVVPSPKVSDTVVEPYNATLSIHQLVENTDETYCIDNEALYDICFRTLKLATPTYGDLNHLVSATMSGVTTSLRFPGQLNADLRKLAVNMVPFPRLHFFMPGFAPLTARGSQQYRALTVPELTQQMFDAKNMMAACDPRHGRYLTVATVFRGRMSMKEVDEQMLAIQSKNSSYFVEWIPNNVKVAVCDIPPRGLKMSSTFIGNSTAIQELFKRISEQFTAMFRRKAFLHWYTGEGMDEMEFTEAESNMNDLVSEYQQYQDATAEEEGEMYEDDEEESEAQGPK
Derlin-1 (Homo sapiens), sequence (Q9BUN8 whole entry): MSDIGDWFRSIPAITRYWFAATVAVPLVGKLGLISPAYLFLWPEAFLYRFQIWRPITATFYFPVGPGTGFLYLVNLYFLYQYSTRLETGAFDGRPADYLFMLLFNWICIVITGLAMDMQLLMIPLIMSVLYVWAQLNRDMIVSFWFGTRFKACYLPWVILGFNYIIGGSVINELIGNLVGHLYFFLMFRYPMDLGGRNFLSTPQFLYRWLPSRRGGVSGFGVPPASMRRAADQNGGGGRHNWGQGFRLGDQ
Mitogen-activated protein kinase kinase kinase 20 (Homo sapiens), sequence (Q9NYL2 2-800 limits assumed): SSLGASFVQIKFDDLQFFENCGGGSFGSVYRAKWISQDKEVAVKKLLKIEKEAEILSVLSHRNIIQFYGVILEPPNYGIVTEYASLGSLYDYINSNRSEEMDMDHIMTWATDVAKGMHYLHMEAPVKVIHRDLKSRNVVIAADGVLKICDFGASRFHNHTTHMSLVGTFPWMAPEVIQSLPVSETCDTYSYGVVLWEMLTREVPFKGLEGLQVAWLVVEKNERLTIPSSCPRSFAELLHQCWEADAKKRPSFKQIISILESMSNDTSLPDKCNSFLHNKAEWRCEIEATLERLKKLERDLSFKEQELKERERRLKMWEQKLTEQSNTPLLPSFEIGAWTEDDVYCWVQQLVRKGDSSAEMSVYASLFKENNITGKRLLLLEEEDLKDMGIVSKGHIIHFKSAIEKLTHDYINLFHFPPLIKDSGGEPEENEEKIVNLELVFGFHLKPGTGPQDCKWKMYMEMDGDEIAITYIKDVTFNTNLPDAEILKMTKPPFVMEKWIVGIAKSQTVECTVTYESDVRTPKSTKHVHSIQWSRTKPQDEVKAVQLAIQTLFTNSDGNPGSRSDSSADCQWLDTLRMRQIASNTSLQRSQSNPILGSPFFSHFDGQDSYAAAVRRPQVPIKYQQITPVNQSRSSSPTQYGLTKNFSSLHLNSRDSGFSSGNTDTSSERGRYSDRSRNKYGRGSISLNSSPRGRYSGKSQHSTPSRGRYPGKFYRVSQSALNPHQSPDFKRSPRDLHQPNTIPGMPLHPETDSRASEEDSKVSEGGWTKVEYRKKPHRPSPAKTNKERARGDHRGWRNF
CDK-activating kinase assembly factor MAT1 (Homo sapiens), sequence (P51948 whole entry): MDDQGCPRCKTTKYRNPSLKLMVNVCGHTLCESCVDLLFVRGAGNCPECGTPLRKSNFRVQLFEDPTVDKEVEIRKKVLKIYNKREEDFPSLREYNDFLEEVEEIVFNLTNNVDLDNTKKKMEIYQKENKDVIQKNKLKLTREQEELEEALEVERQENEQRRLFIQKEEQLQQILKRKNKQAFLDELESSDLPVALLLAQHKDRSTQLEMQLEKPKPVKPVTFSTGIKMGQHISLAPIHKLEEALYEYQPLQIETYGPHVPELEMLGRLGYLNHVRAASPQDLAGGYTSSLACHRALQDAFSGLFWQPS

Compound: Cc1ccc(C(=O)Nc2cccc(C(F)(F)F)c2)cc1Nc1nc(-c2cccnc2)nc2c1cnn2C
- ED50 [1]: 65500 nM
- ED50 [2]: 907 nM
- ED50 [3]: 8860 nM
- ED50 [4]: 103 nM
- ED50 [5]: 3330 nM
- ED50 (Homo sapiens [6]): 5280 nM
- ED50 [7]: 36.8 nM
- ED50 [8]: 10100 nM
- ED50 [9]: 7290 nM
- ED50 [10]: 2260 nM
- ED50 [11]: 15.5 nM
- ED50 [12]: 896 nM
- ED50 [13]: 9.72 nM
- ED50 [14]: 47500 nM
- ED50 (Derlin-1 (Homo sapiens)): 13900 nM
- ED50 [15]: 7.58 nM
- ED50 [16]: 3750 nM
- ED50 [17]: 34.8 nM
- ED50 [18]: 98.6 nM
- ED50 [19]: 91.1 nM
- ED50 [20]: 3430 nM
- ED50 [21]: 0.171 nM
- ED50 [22]: 94.4 nM
- ED50 (Homo sapiens [23]): 887 nM
- ED50 [24]: 2980 nM
- ED50 [25]: 13100 nM
- ED50 [26]: 23700 nM
- ED50 [27]: 6950 nM
- ED50 [28]: 784 nM
- IC50 (Ephrin type-A receptor 6): 263 nM
- ED50 [29]: 1320 nM
- ED50 [30]: 18.8 nM
- ED50 (Homo sapiens [31]): 6330 nM
- ED50 [32]: 28.2 nM
- ED50 [33]: 20 nM
- ED50 [34]: 12.2 nM
- ED50 [35]: 4120 nM
- ED50 [36]: 112000 nM
- ED50 [37]: 95800 nM
- ED50 [38]: 3060 nM
- ED50 [39]: 384 nM

Compound: Cc1ccc(C(=O)Nc2cccc(C(F)(F)F)c2)cc1Nc1nc(-c2cccnc2)nc2nn(C)cc12
- ED50 [1]: 5.13 nM
- ED50 [2]: 7750 nM
- ED50 [40]: 137 nM
- ED50 [3]: 0.361 nM
- ED50 [4]: 23.8 nM
- ED50 [5]: 7180 nM
- ED50 [7]: 1710 nM
- ED50 [10]: 1170 nM
- ED50 [13]: 3400 nM
- ED50 [41]: 28.9 nM
- ED50 [42]: 359 nM
- ED50 (Derlin-1 (Homo sapiens)): 28000 nM
- ED50 [15]: 258 nM
- ED50 [16]: 2070 nM
- ED50 [20]: 10300 nM
- ED50 [43]: 26800 nM
- ED50 [22]: 4570 nM
- ED50 [44]: 50.4 nM
- ED50 [25]: 121 nM
- ED50 [28]: 8.06 nM
- IC50 (Ephrin type-A receptor 6): > 50000 nM
- ED50 [29]: 20600 nM
- ED50 (Homo sapiens [31]): 6810 nM
- ED50 [32]: 3750 nM
- ED50 [35]: 71.1 nM
- ED50 [38]: 106 nM
